Source: patent US20130023504A1, “Modulation of Prostaglandin/Cyclooxygenase Metabolic Pathways” (HUNTER-FLEMING LIMITED, priority 2006, published 2013)
Marks after values point to notes of the source that are not given here.

Tests used:
human PBMC = assay: PG levels (PGE2, PGD2, 15d-PGJ2) in culture medium of human PBMC cultured with and without TNF-α, EIA (Example 3); assay type: cell-based
Protocol: (§1) Whole blood was collected from donors in EDTA-supplemented pouches at the Etablissement Français du Sang (Brest, France). The PBMC were isolated then from whole blood under sterile conditions within 36 hours after collection. Gradient density centrifugation was carried out on Ficoll (Eurobio). After washing in RPMI 1640 medium (Eurobio), cells were suspended in RPMI 1640 medium supplemented with 10% heat-inactivated fetal calf serum (Eurobio), 2 mM glutamine (D. Dutscher), 100 U of penicillin/ml (D. Dutscher), and 100 μg of streptomycin/ml (D. Dutscher). Monocytes were selected by plastic adherence for 1 h and approximately 10^7 cells were plated in 6-well tissue culture plates (3 mL medium per well). All incubations were performed in a humidified incubator at 37° C. and 5% CO2. Cells were recovered and dispersed in 2 ml fresh incubation medium supplemented with either 7β-hydroxyEPIA, 7β-hydroxy-DHEA, or 7α-hydroxy-DHEA (in 20 μL ethanol) in the presence or absence of 0.01 μg/mL TNF-α (Sigma-Aldrich). Control incubations contained 20 μl ethanol but no steroid. Supernatants were collected after 4 h and 24 hours incubations for measurement of their PG contents and cells were used for subsequent RNA isolation. A single step extraction method using the Trizol Reagent (Invitrogen, Cergy-Pontoise, France) provided total RNA.
Commercially available EIA kits were used for the determination of PGE2 levels (Oxford Biomedical Research, UK) and 15d-PGJ2 levels (Assay designs, Euromedex, France) in culture media. Measurement of PGD2 levels was obtained using the prostaglandin D2-MOX EIA kit (Cayman Chemical, Euromedex). In this case, and prior to assay, the fresh samples were immediately treated with the MOX-HCl reagent, which converted PGD2 into PGD2-MOX, thus preventing any further chemical degradation.
(§2) All assays were carried out in triplicate and results were plotted as mean±S.E.M. One-way analysis of variance was performed followed by Duncan's multiple range tests in order to compare the differences between groups. Differences were considered statistically significant when p<0.05.

m-PGES1 mRNA = m-PGES1 mRNA in human PBMC with and without TNF-α, quantitative RT-PCR; assay type: cell-based
Protocol: as §1
(§3) cDNAs were synthesized from TURBO DNase I—treated RNA (Ambion, Huntingdon, UK) using the Superscript first strand synthesis system kit (Invitrogen). RT-PCR amplification mixtures (50 μL) contained 2.5× RealMaster Mix/20×SYBR solution (11.25 μL) (Eppendorf, Le Pecq, France) and 200 nM forward and reverse primers. Reactions were run on a RealPlex ep gradient S mastercycler (Eppendorf). The cycling conditions were 10 minutes at 95° C. and 45 cycles at 95° C., 55° C. and 68° C. for 15 seconds, 30 seconds and 30 seconds, respectively. Each assay included a standard curve of four serial dilution points of control cDNA. The HPRT1 housekeeping gene was used for quantification. All oligonucleotide primers (Table 2) were synthesized by Genecust/Distribio (Evry, France). The specificity of the amplified product was monitored by examining the melting curve of the product and confirmed by analysis on agarose gel electrophoresis.
as §2

COX-2 mRNA = COX-2 mRNA in human PBMC with and without TNF-α, quantitative RT-PCR; assay type: cell-based
Protocol: as §1, §3, §2

[1] = tested on: collagen-induced arthritis; assay: Collagen-induced arthritis (CII/CFA), histopathology, clinical score, knee homogenate prostaglandins; assay type: in vivo, mouse
[2] = 100 nM + TNF-α (10 ng/mL), 24 h

## CC12CCC3C(C1CCC2=O)[C@@H](O)C[C@H]1C[C@@H](O)CCC31C (stereo partly drawn) [Compound 7β-OH-EPIA, 7β-hydroxy-EPIAndrosterone]
Human PBMC; 1 nM + TNF-α (10 ng/mL), 4 h
  15d-PGJ2: 0.37 ± 0.029 ng/mL
  PGD2: 0.22 ± 0.082 ng/mL
  PGE2: 0.50 ± 0.012 ng/mL
Human PBMC; 1 nM + TNF-α (10 ng/mL), 24 h
  15d-PGJ2: 2.18 ± 0.183^c ng/mL
  PGD2: 0.47 ± 0.013^d ng/mL
  PGE2: 0.70 ± 0.001^b ng/mL
Human PBMC; 1 nM, 4 h, without TNF-α
  15d-PGJ2: 0.39 ± 0.080 ng/mL
  PGD2: 0.18 ± 0.005 ng/mL
  PGE2: 0.26 ± 0.011 ng/mL
Human PBMC; 1 nM, 24 h, without TNF-α
  15d-PGJ2: 0.85 ± 0.014^a ng/mL
  PGD2: 0.21 ± 0.012^a ng/mL
  PGE2: 0.26 ± 0.015 ng/mL
Human PBMC; 10 nM + TNF-α (10 ng/mL), 4 h
  15d-PGJ2: 0.40 ± 0.007 ng/mL
  PGD2: 0.22 ± 0.010 ng/mL
  PGE2: 0.49 ± 0.021 ng/mL
Human PBMC; 10 nM + TNF-α (10 ng/mL), 24 h
  15d-PGJ2: 2.77 ± 0.021^c ng/mL
  PGD2: 0.42 ± 0.009^d ng/mL
  PGE2: 0.80 ± 0.012^b ng/mL
Human PBMC; 10 nM, 4 h, without TNF-α
  15d-PGJ2: 0.39 ± 0.010 ng/mL
  PGD2: 0.19 ± 0.020 ng/mL
  PGE2: 0.23 ± 0.022 ng/mL
Human PBMC; 10 nM, 24 h, without TNF-α
  15d-PGJ2: 0.91 ± 0.032^a ng/mL
  PGD2: 0.23 ± 0.001^a ng/mL
  PGE2: 0.23 ± 0.021 ng/mL
Human PBMC; 100 nM + TNF-α (10 ng/mL), 4 h
  15d-PGJ2: 0.37 ± 0.016 ng/mL
  PGD2: 0.23 ± 0.007 ng/mL
  PGE2: 0.42 ± 0.020 ng/mL
Human PBMC; [2]
  15d-PGJ2: 0.85 ± 0.019^ ng/mL
  PGD2: 0.40 ± 0.030^d ng/mL
  PGE2: 0.71 ± 0.012^b ng/mL
Human PBMC; 100 nM, 4 h, without TNF-α
  15d-PGJ2: 0.37 ± 0.018 ng/mL
  PGD2: 0.20 ± 0.013 ng/mL
  PGE2: 0.22 ± 0.020 ng/mL
Human PBMC; 100 nM, 24 h, without TNF-α
  15d-PGJ2: 1.70 ± 0.016^a ng/mL
  PGD2: 0.24 ± 0.031^a ng/mL
  PGE2: 0.24 ± 0.022 ng/mL
m-PGES1 mRNA; 1 nM + TNF-α (10 ng/mL), 4 h
  mPGES1 (mRNA), mRNA production relative to controls: 1.11 ± 0.235
m-PGES1 mRNA; 1 nM + TNF-α (10 ng/mL), 24 h
  mPGES1 (mRNA), mRNA production relative to controls: 21.6 ± 4.28^
m-PGES1 mRNA; 1 nM, 4 h, without TNF-α
  mPGES1 (mRNA), mRNA production relative to controls: 0.76 ± 0.053^b
m-PGES1 mRNA; 1 nM, 24 h, without TNF-α
  mPGES1 (mRNA), mRNA production relative to controls: 1.77 ± 0.324^a
m-PGES1 mRNA; 10 nM + TNF-α (10 ng/mL), 4 h
  mPGES1 (mRNA), mRNA production relative to controls: 1.15 ± 0.183
m-PGES1 mRNA; 10 nM + TNF-α (10 ng/mL), 24 h
  mPGES1 (mRNA), mRNA production relative to controls: 6.29 ± 1.131^d
m-PGES1 mRNA; 10 nM, 4 h, without TNF-α
  mPGES1 (mRNA), mRNA production relative to controls: 0.94 ± 0.067
m-PGES1 mRNA; 10 nM, 24 h, without TNF-α
  mPGES1 (mRNA), mRNA production relative to controls: 3.61 ± 0.662^a
m-PGES1 mRNA; 100 nM + TNF-α (10 ng/mL), 4 h
  mPGES1 (mRNA), mRNA production relative to controls: 1.29 ± 0.323
m-PGES1 mRNA; [2]
  mPGES1 (mRNA), mRNA production relative to controls: 6.79 ± 2.898^d
m-PGES1 mRNA; 100 nM, 4 h, without TNF-α
  mPGES1 (mRNA), mRNA production relative to controls: 0.71 ± 0.058^b
m-PGES1 mRNA; 100 nM, 24 h, without TNF-α
  mPGES1 (mRNA), mRNA production relative to controls: 2.63 ± 0.475^a
COX-2 mRNA; 1 nM + TNF-α (10 ng/mL), 4 h
  COX-2 (mRNA), mRNA production relative to controls: 7.39 ± 0.282^c
COX-2 mRNA; 1 nM + TNF-α (10 ng/mL), 24 h
  COX-2 (mRNA), mRNA production relative to controls: 2.74 ± 0.555^c
COX-2 mRNA; 1 nM, 4 h, without TNF-α
  COX-2 (mRNA), mRNA production relative to controls: 0.56 ± 0.072^b
COX-2 mRNA; 1 nM, 24 h, without TNF-α
  COX-2 (mRNA), mRNA production relative to controls: 0.82 ± 0.27^b
COX-2 mRNA; 10 nM + TNF-α (10 ng/mL), 4 h
  COX-2 (mRNA), mRNA production relative to controls: 2.75 ± 0.147^d
COX-2 mRNA; 10 nM + TNF-α (10 ng/mL), 24 h
  COX-2 (mRNA), mRNA production relative to controls: 0.94 ± 0.194^d
COX-2 mRNA; 10 nM, 4 h, without TNF-α
  COX-2 (mRNA), mRNA production relative to controls: 0.94 ± 0.048
COX-2 mRNA; 10 nM, 24 h, without TNF-α
  COX-2 (mRNA), mRNA production relative to controls: 1.66 ± 0.408
COX-2 mRNA; 100 nM + TNF-α (10 ng/mL), 4 h
  COX-2 (mRNA), mRNA production relative to controls: 5.76 ± 0.660
COX-2 mRNA; [2]
  COX-2 (mRNA), mRNA production relative to controls: 0.67 ± 0.132^d
COX-2 mRNA; 100 nM, 4 h, without TNF-α
  COX-2 (mRNA), mRNA production relative to controls: 1.10 ± 0.108
COX-2 mRNA; 100 nM, 24 h, without TNF-α
  COX-2 (mRNA), mRNA production relative to controls: 1.05 ± 0.214
[1]; 0.1 μg/kg day, D 20-50, Day 50
  15d-PGJ2 in knee homogenates: 78.96 ± 22.18 pg/mL
  Clinical Score (joint swelling): 3.10 ± 2.96
  PGE2/15d-PGJ2: 1.21
  PGE2 in knee homogenates: 95.61 ± 34.65 pg/mL
[1]; 1.0 μg/kg s.c. daily, treatment from Day 20-50
  Histopathology Score (both paws on Day 50): 0.60
[1]; 10.0 μg/kg, treatment day 0 to day 30
  animals completely clear of histopathological change in the paw joints: 9 out of 10
[1]; 10.0 μg/kg, treatment from Day 0-30
  Histopathology Score (both paws on Day 50): 0.2*
[1]; 10.0 μg/kg, treatment from Day 20-50
  Histopathology Score (both paws on Day 50): 0.44
[1]; 100.0 μg/kg, treatment from Day 20-50
  Histopathology Score (both paws on Day 50): 0.85
